Test results taken from patent publication US8133849B2, “Herbicidal compounds” (Syngenta Limited, priority 2007, dated 2012).

Legend:
Assay in all cases: Example B2 herbicidal action, post-emergence, pots in glasshouse, damage score 0-10
Format in all cases: in vivo
Conditions in all cases: application post-emergence, rate 1000 g/ha, evaluated after 13 days
Amaranthus retroflexus = test system: Amaranthus retroflexus
Method: (§1) Seeds of a variety of test species were sown in standard soil in pots. After 8 days cultivation (post-emergence) under controlled conditions in a glasshouse (at 24/16° C., day/night; 14 hours light; 65% humidity), the plants were sprayed with an aqueous spray solution derived from the formulation of the technical active ingredient in acetone/water (50:50) solution containing 0.5% Tween 20 (polyoxyethelyene sorbitan monolaurate, CAS RN 9005-64-5). The test plants were then grown in a glasshouse under controlled conditions in a glasshouse (at 24/16° C., day/night; 14 hours light; 65% humidity) and watered twice daily. After 13 days, the test was evaluated (10=total damage to plant; 0=no damage to plant).

Ipomea hederaceae = test system: Ipomea hederaceae
Method: as §1

Setaria faberi = test system: Setaria faberi
Method: as §1

Solanum nigrum = test system: Solanum nigrum
Method: as §1

Echinochloa crus-galli = test system: Echinochloa crus-galli
Method: as §1

| SMILES | AMARE damage score (10=total damage to plant; 0=no damage to plant) (Amaranthus retroflexus) | IPOHE damage score (10=total damage to plant; 0=no damage to plant) (Ipomea hederaceae) | SETFA damage score (10=total damage to plant; 0=no damage to plant) (Setaria faberi) | SOLNI damage score (10=total damage to plant; 0=no damage to plant) (Solanum nigrum) | ECHCG damage score (10=total damage to plant; 0=no damage to plant) (Echinochloa crus-galli) |
| --- | --- | --- | --- | --- | --- |
| CC(C)C(=O)OC1=C(c2cc(Cl)cc(C(F)(F)F)c2)S(=O)(=O)N(CC(F)F)c2nccnc21 [Compound C149] | 10 | 0 | 0 | 8 | 0 |
| CCSC(=O)OC1=C(c2cccc(Cl)c2Cl)S(=O)(=O)N(CC)c2nccnc21 [Compound C99] | 3 | 3 | 1 | 8 | 2 |
| CC(C)(C)C(=O)OC1=C(c2c(F)ccc(Cl)c2Cl)S(=O)(=O)N(CC(F)F)c2nccnc21 [Compound C20] | 10 | 10 | 0 | 10 | 8 |
| COCN1c2nccnc2C(OC(=O)C(C)C)=C(c2ccc(Cl)cc2Cl)S1(=O)=O [Compound C27] | 7 | 6 | 6 | 9 | 3 |
| CCSC(=O)OC1=C(c2cccc(Cl)c2Cl)S(=O)(=O)N(CC(F)F)c2nccnc21 [Compound C101] | 4 | 8 | 2 | 10 | 5 |
| CCN1c2nccnc2C(O)=C(c2cc(Cl)ccc2C(F)(F)F)S1(=O)=O [Compound D52] | 5 | 5 | 4 | 7 | 4 |
| CC(C)C(=O)OC1=C(c2c(C(F)(F)F)ccc(Cl)c2Cl)S(=O)(=O)N(CC(F)F)c2nccnc21 [Compound C134] | 8 | 3 | 4 | 8 | 5 |
| CC(C)C(=O)OC1=C(c2cc(C(F)(F)F)ccc2Cl)S(=O)(=O)N(C)c2nccnc21 [Compound C90] | 8 | 9 | 1 | 10 | 2 |
| CCN1c2nccnc2C(OC(=O)C(C)(C)C)=C(c2ccccc2C(F)(F)F)S1(=O)=O [Compound C64] | 4 | 6 | 3 | 5 | 5 |
| CCN1c2nccnc2C(O)=C(c2ccccc2SC(F)(F)F)S1(=O)=O [Compound D7] | 9 | 3 | 0 | 5 | 0 |
| CSC(=O)OC1=C(c2ccc(Br)cc2C(F)(F)F)S(=O)(=O)N(CC(F)F)c2nccnc21 [Compound C133] | 10 | 8 | 7 | 10 | 8 |
| CC(C)C(=O)OC1=C(c2ccccc2C(F)(F)F)S(=O)(=O)N(CC(F)F)c2nccnc21 [Compound C61] | 10 | 10 | 10 | 10 | 9 |
| O=S1(=O)C(c2cc(Cl)cc(C(F)(F)F)c2)=C(O)c2nccnc2N1CC(F)F [Compound D19] | 0 | 0 | 0 | 2 | 0 |
| CCN1c2nccnc2C(OC(=O)C(C)C)=C(c2ccccc2SC(F)(F)F)S1(=O)=O [Compound C19, isobutyric acid 1-ethyl-2,2-dioxo-3-(2-trifluoromethyl-sulfanyl-phenyl)-1,2-dihydro-2-λ-6-thia-1,5,8-triaza-naphthalen-4-yl ester] | 9 | 8 | 0 | 6 | 4 |
| CCOC(=O)OC1=C(c2cc(Cl)ccc2C(F)(F)F)S(=O)(=O)N(CC(F)F)c2nccnc21 [Compound C120] | 9 | 10 | 9 | 9 | 8 |
| CC(C)C(=O)OC1=C(c2cc(C(F)(F)F)ccc2Br)S(=O)(=O)N(CC(F)F)c2nccnc21 [Compound C59] | 10 | 10 | 3 | 10 | 7 |
| CCN1c2nccnc2C(O)=C(c2c(Cl)cccc2C(F)(F)F)S1(=O)=O [Compound D6] | 10 | 9 | 5 | 10 | 7 |
| CCc1cc(C)cc(CC)c1C1=C(OC(=O)C(C)C)c2nccnc2N(CC(F)F)S1(=O)=O [Compound C48] | 3 | 6 | 0 | 5 | 0 |
| CC(C)C(=O)OC1=C(c2cc(C(F)(F)F)ccc2Cl)S(=O)(=O)N(C=CCl)c2nccnc21 (mixture of isomers) [Compound C114] | 4 | 6 | 2 | 10 | 0 |
| O=S1(=O)C(c2cc(C(F)(F)F)ccc2C(F)(F)F)=C(O)c2nccnc2N1CC(F)F [Compound D22] | 10 | 10 | 6 | 10 | 7 |
| CC#CCN1c2nccnc2C(OC(=O)SCC)=C(c2c(Cl)ccc(Cl)c2C(F)(F)F)S1(=O)=O [Compound C97] | 0 | 4 | 0 | 6 | 1 |
| CC(C)(C)C(=O)OC1=C(c2cc(C(F)(F)F)ccc2Br)S(=O)(=O)N(CC(F)F)c2nccnc21 [Compound C80] | 10 | 10 | 0 | 10 | 6 |
| CCN1c2nccnc2C(O)=C(c2ccc(Cl)cc2C(F)(F)F)S1(=O)=O [Compound D10] | 9 | 9 | 2 | 10 | 4 |
| CS(=O)(=O)OC1=C(c2cc(C(F)(F)F)ccc2Cl)S(=O)(=O)N(CC(F)F)c2nccnc21 [Compound C83, methanesulfonic acid 3-(2-chloro-5-trifluoromethyl-phenyl)-1-(2,2-difluoro-ethyl)-2,2-dioxo-1,2-dihydro-2-λ-6-thia-1,5,8-triaza-naphthalen-4-yl ester] | 9 | 10 | 1 | 10 | 7 |
